According to the NIST ThermoML archive (doi:10.1021/je049796y):
Numbers after ± are expanded uncertainties.

Assay: xn = mol fraction of the nth substance listed
Conditions: 283.65 K, Vibrating tube method

C=C [ethene] + CCO
Conditions | mass density [kg/m3]
Liquid mixture 1, x1 = 0.685 | 529.3 ± 1.9
Liquid mixture 1, x1 = 0.712 | 503.5 ± 1.9
Liquid mixture 2, x1 = 0.862 | 410 ± 1.7
Liquid mixture 2, x1 = 0.892 | 385.6 ± 1.7

Liquid
Conditions | mass density [kg/m3]
x1 = 0.101 | 767.8 ± 0.7
x1 = 0.178 | 741.9 ± 0.8
x1 = 0.268 | 708.7 ± 0.8
x1 = 0.408 | 661.3 ± 0.8
x1 = 0.512 | 614.1 ± 1
x1 = 0.614 | 564.2 ± 1.3
x1 = 0.94 | 347.3 ± 2.1
x1 = 0.989 | 295.1 ± 2.1
